What all share (assay type): cell-based, Saccharomyces cerevisiae W303
Experiment [1] has as its system promoter of yeast gene YKL071w. Conditions: SC-YKL071W-pQBI cells, 25° C., two hours; each substance at the concentration given. The text has this:
(§1) The inventors of the present application understood that the induction of certain yeast genes by toxic substances is caused by the activation of the promoters of the genes by the toxic substances. Thus, the inventors prepared a vector that comprised a polynucleotide sequence comprising the promoter of the yeast gene, which sequence is operably linked to a polynucleotide encoding a marker protein; and transformed yeast cells with the vector. […] The working examples hereinafter illustrate the preparation of such vectors, transformation of yeast cells by use of said vectors, and the detection of toxic substances by use of the transformed cells.
(§2) Promoter assay is a method for determining variations of the level of intracellular genes without destroying cells on the basis of the level of expressed marker genes instead of the expressed mRNA. The gene selected to detect a chemical substance is expressed in the absence of chemical substances, and thus a marker protein also occurs in the absence of chemical substances. In the method according to the present invention, the behavior of yeast genes on the addition of test materials is determined on the basis of the level of expressed marker protein so that the presence or the absence, and the kind of toxic chemical substances are predicted. Thus, it is desired that the production of marker proteins is lower in the absence of chemical substances, and the production of marker proteins is higher in the presence of chemical substances.
(§3) Type YEp shuttle vector pYES2 (pYES2, Cat no: V825-20, Invirtogen Corporation, USA), which can be replicated both in E. coli. and yeast was used as vector (R. W. Old, S. B. Primrose Principles of Gene Manipulation 5th Ed., BAIFUKAN CO., LTD, pp138-165, pp.234-263, 2000). The portion of vector pQBI 63 (Cat no.54-0082, Wako Pure Chemical Industries, Ltd.) corresponding to a marker protein GFP was used as the polynucleotide encoding GFP (SEQ ID No: 6). First, the GFP polynucleotide was inserted into the multiple cloning sites of pYES2 to give a vector. Thereafter, the GAL1 promoter of pYES2 was replaced with the polynucleotide comprising the promoter sequence of the intended yeast gene YKL071w (SEQ ID No: 1) to give an intended plasmid vector. Suitable restriction enzymes were selected, and the insertion of the polynucleotide comprising GFP and the promoter sequence was conducted.
(§4) Next, the yeast Saccharomyces cerevisiae W303 was transformed with the resultant plasmid vector according to the following procedures: • 1) Incubating the yeast Saccharomyces cerevisiae W303 in 200 ml of SD medium under shaking until OD 660 reaches 0.5; • 2) Suspending the collected cells in 5 ml of TE-buffer; • 3) Adding 250 μL of 2.5M lithium acetate; • 4) Dispending each 300 μl, adding 10 μl of above plasmid vector thereto, then incubating the suspensions at 30° C. for 30 minutes; • 5) Adding 700 μl of 50% PEG4000, and incubating the mixture under shaking at 30° C. for 60 minutes; • 6) Giving heat shock (42° C., 5 minutes), and then immediately cooling the mixture; • 7) Washing the mixture twice with 1M sorbitol; and • 8) Seeding it on agar plates made of minimum essential medium.
The cells of SC-YKL071W-pQBI as prepared in Example 2 were contacted to one of the following compounds. The yeast cells SC-YKL071W-pQBI were incubated at 25° C. in SD medium (Yeast nitrogen base without amino acids (Difco 0919-15)+glucose+amino acids (adenine, histidine, tryptophan)). One of toxic chemical substances as shown below was added to the cells at logarithmic growth phase, and then the cells were further incubated for two hours.

The subject of experiment [2] is promoter of yeast gene YOR382w. To be noted: for expression of GFP: SC-YOR382W-pQBI cells, summary of Table 12; for Fluorescence: cells SC-YOR382W-pQBI, 2 hours incubation with the substance at the concentration printed in its row (column Concentrations), GFP fluorescence vs control without chemical.
Source text: as §1, §2
as §3, with “YOR382w” for “YKL071w”, “3)” for “1)”
as §4
The cells of SC-YOR382W-pQBI as prepared in Example 4 were contacted to one of the following compounds. The yeast cells SC-YOR382W-pQBI were incubated at 25° C. in SD medium (Yeast nitrogen base without amino acids (Difco 0919-15)+glucose+amino acids (adenine, histidine, tryptophan)). One of toxic chemical substances as shown below was added to the cells at logarithmic growth phase, and then the cells were further incubated for two hours.

Experiment [3] concerns promoter of yeast gene YLL057c. To be noted: for Fluorescence: cells SC-YLL057C-pQBI, 2 hours incubation with the substance at the concentration printed in its row (column Concentrations), GFP fluorescence vs control without chemical.
Source text: as §1, §2
as §3, with “PQBI” for “pQBI”, “GALL” for “GAL1”, “YLL057c” for “YKL071w”, “4)” for “1)”
as §4
The cells of SC-YLL057C-pQBI as prepared in Example 5 were contacted to one of the following compounds. The yeast cells SC-YLL057C-pQBI were incubated at 25° C. in SD medium (Yeast nitrogen base without amino acids (Difco 0919-15)+glucose+amino acids (adenine, histidine, tryptophan)). One of toxic chemical substances as shown below was added to the cells at logarithmic growth phase, and then the cells were further incubated for two hours.

For the compound “manganese ethylenebis(dithiocarbamate) [(8)]”, in experiment [1], the Fluorescens result is “− (the number of the cells having a higher fluorescence than the control was under 1%)”. In experiment [2], the “expression of GFP” value is recorded as “induced the expression of GFP” and the Fluorescence result was “++ (2% or more)”. Further, in experiment [3], the Fluorescence entry is reported as “− (the number of the cells having a higher fluorescence than the control was under 1%)”.

Regarding `CCOC(=O)CC(SP(=S)(OC)OC)C(=O)OCC` (stereo not shown) [malathon], the Fluorescens entry in experiment [1] is “− (the number of the cells having a higher fluorescence than the control was under 1%)”. Moreover, the “expression of GFP” value in experiment [2] is reported as “induced the expression of GFP”. In addition, the Fluorescence entry in experiment [2] is reported as “++ (2% or more)”; in experiment [3], “− (the number of the cells having a higher fluorescence than the control was under 1%)”.

CdCl2 [(2)]: the Fluorescens result in experiment [1] was “− (the number of the cells having a higher fluorescence than the control was under 1%)”. Further, the Fluorescence result is reported as “− (the number of the cells having a higher fluorescence than the control was under 1%)” in experiment [2] and “++ (2% or more)” in experiment [3]. Moreover, in experiment [3] (SC-YLL057C-pQBI cells, summary of Table 13), the “expression of GFP” value was “induced the expression of GFP”.

Consider HgCl2 [(3)], for which, in experiment [1], the Fluorescens entry is recorded as “− (the number of the cells having a higher fluorescence than the control was under 1%)”. The Fluorescence result in experiment [2] and in experiment [3] was “− (the number of the cells having a higher fluorescence than the control was under 1%)” throughout.

With `[K+].[K+].[O]=[Cr](=[O])([O-])[O][Cr](=[O])(=[O])[O-]` [potassium bichromate], the Fluorescens result in experiment [1] is reported as “− (the number of the cells having a higher fluorescence than the control was under 1%)”. In addition, in experiment [2], the “expression of GFP” value was “induced the expression of GFP” and the Fluorescence entry was “++ (2% or more)”. Moreover, the Fluorescence entry in experiment [3] was “− (the number of the cells having a higher fluorescence than the control was under 1%)”.

For `[CH3][Hg][Cl]` [methylmercury chloride], the Fluorescens entry in experiment [1] was “− (the number of the cells having a higher fluorescence than the control was under 1%)”. Moreover, the Fluorescence entry in experiment [2] and in experiment [3] was “− (the number of the cells having a higher fluorescence than the control was under 1%)” throughout.

For `[Cl][Sn]([c]1ccccc1)([c]1ccccc1)[c]1ccccc1` [triphenyltin chloride], the Fluorescens result in experiment [1] is listed as “− (the number of the cells having a higher fluorescence than the control was under 1%)”. The Fluorescence result in experiment [2] and in experiment [3] was “− (the number of the cells having a higher fluorescence than the control was under 1%)” each time.
